From BindingDB's records for doi:10.1021/jm060314i (Cnrs, 2006)
Where a name gives a salt, the structure may show the parent alone.

Biological target: 5L hepatoma cell line (Rattus norvegicus)
Assay: Survival of rat 5L hepatoma cells after 48 hrs by MTS reduction assay

CN(C)CCO/N=C1/C(c2c(O)[nH]c3c(Br)cccc23)=Nc2ccccc21 [(2'Z,3'E)-7-bromoindirubin-3'-[O-(2-dimethylaminoethyl)oxime] hydrochloride] showed an IC50 greater than 30 µM.
Work on CN(C)CCO/N=C1/C(c2c(O)[nH]c3c(Br)cccc23)=Nc2ccccc21 [(2'Z,3'E)-7-bromoindirubin-3'-[O-(2-dimethylaminoethyl)oxime]] yielded an IC50 of 25 µM.
Oc1[nH]c2c(Br)cccc2c1C1=Nc2ccccc2/C1=N\OCCN1CCCC1 [(2'Z,3'E)-7-bromoindirubin-3'-[O-(2-pyrrolidin-1-ylethyl)oxime] hydrochloride] was tested, and the IC50 was greater than 30 µM.
